22 compounds from patent US20210213120A1, “KRAS PEPTIDE VACCINE COMPOSITIONS AND METHOD OF USE” (THE MEDICAL COLLEGE OF WISCONSIN , INC., priority 2017, published 2021) can be followed below.

No end group written: not given here.

Test [1] relates to tumor infiltrated CD8+ cells and Tregs. Nature of the test: T cells in spleen or tumor of K-rasLA1 mice. It counts as in vivo, mouse. To be noted: 4~5 weeks after treatment. Here is the method:
FIG. 8. UAB30 increased tumor infiltrated CD8+ cells and decreased Tregs in tumor. K-rasLA1 mice were treated with control, Kras-vaccine, UAB30 alone or Kras-vaccine and UAB30 and the % CD4+ or CD8+ T cells were assessed in the spleen or tumor of mice at 4˜5 weeks after treatment.
K-rasLA1 mouse develops premalignant lung lesions that progress to multifocal lung adenocarcinomas due to somatic mutations in K-ras, which occurs at the birth of these mice through DNA recombination. […] In this model, vaccination was given when mice were 8˜10 weeks old, at which numerous pleural lesions already formed in lung, yet K-ras vaccination alone significant inhibited lung tumor multiplicity and load in K-rasLA1 mice, decreased tumor numbers from ˜12 to ˜7 per mouse, and tumor load from ˜55 mm3 to ˜30 mm3 (FIG. 7).

Test [2] deals with K-ras-driven lung cancer syngraft. Description: K-ras-driven lung cancer syngraft tumor model (avasimibe combination). The class given is in vivo, mouse. To be noted: tumor volume over time. Here is the method: FIG. 10. K-ras vaccine synergize with Avasamibe to inhibit lung tumor progression in K-ras-driven lung cancer syngraft tumor model.
Mice were treated with the combination of K-ras multi-peptide vaccine with avasimibe in a K-ras-driven lung cancer syngraft model. Tumor volume was assessed over time post tumor cell inoculation.
Therefore, we tested the combination of K-ras multi-peptide vaccine with avasimibe in a K-ras-driven lung cancer syngraft model.

Test [3] in a line: Immune response to KRAS peptides (Table 1).
The test system of the next test is IFN-γ response. Description: IFN-γ ELISPOT of PD-1 and PD-L1 peptides in naïve mice. The class given is in vivo, mouse. Here is the method:
The immunogenicity of PD-1 and PD-L1 were tested in naïve mice using the IFN-γ ELISPOT assay. (P<0.0001, data not shown)
Cancer cells are naturally attacked by cells of the immune system, but can induce a state of tolerance whereby they escape from immune attack, for which immune checkpoint proteins such as PD1, VISTA are important ones mediating this immune escape. Interaction of PD-1 on activated T cells and PD-L1 on cancer cells lead to inhibition of the cytotoxic T cells. Investigators have recently identified spontaneous T cell reactivity against PD-L1 in the tumor microenvironment and in the peripheral blood of patients with metastatic melanoma and healthy donors, PD-L1 reactive CD8 T cells are cytotoxic and can kill cancer cells and immune regulatory cells in vitro, and responsive PD-L1 peptide vaccine has therefore under development. Here, by using a multi-scoring system that combines multiple MHC class II peptide binding algorithms, we identified immunogenic “hotspots”, and selected 7 peptides for PD-L1 and 11 peptides for PD-1 from these immunogenic “hot” regions (see Table 3). We then tested their immunogenicity in naïve mice using the IFN-γ ELISPOT assay.

In test [4] the test system is IFN-γ-secreting splenocytes. Nature of the test: IFN-γ ELISPOT screen of single KRAS peptides in naïve mice. It counts as in vivo, mouse. As to conditions: for IFN-γ response (ELISPOT): naïve mice vaccinated with single KRAS peptide; for IFN-γ response (ELISPOT) / mean IFN-γ-secreting cells: splenocytes pulsed 72 h. The text has this: FIG. 1A-1C. In vivo screen for peptide candidates by ELISPOT in naïve mice. (A) Immunogenic heatmap for identifying peptides associated with highest binding affinity across multiple MHC class II alleles. Colors represent percentile to highest score from three algorithms for each amino acid from dark red to light blue in the order of rank scores. Color strata are as follows: dark red ≥75% of the highest score; red=50˜75% of the highest score; orange=40˜50% of highest score; yellow=30˜40% of the highest score; green=20˜30% of the highest score; blue ≤20% of the highest score. (B) Representative ELISPOT results showing T cell responses to specific KRAS peptides from mouse splenocytes stimulated with no antigen (first row), negative control peptide (HIV peptide, second row), target peptide (third row), or positive control ConA (fourth row). (C) Quantified ELISPOT results. Then, splenocytes were collected and pulsed with no antigen control, each single KRAS peptide, or negative control peptide (HIV peptide), or positive control ConA. After 72 h of incubation, the ELISPOT assay was performed, plates were scanned, and spot numbers were statistically analyzed. Open bar, ELISPOT reads from KRAS peptide vaccinated animals pulsed with specific KRAS peptide; blue bar, ELISPOT reads from animals injected only with adjuvant and pulsed with specific KRAS peptide; black bar, ELISPOT reads from three most significant KRAS peptide vaccinated animals. Data are shown as the mean±SE of three replicate wells per group, n=5.
Mice were vaccinated with 50 μg of each peptide. Phosphate buffered saline (PBS) was added to bring the total volume to 50 μL/mouse. An equal amount of adjuvant (Complete Freund's Adjuvant or Incomplete Freund's Adjuvant) was added to bring the total volume to 100 μL/mouse. Mice were injected subcutaneously on the shoulder at 7 weeks of age, and boosting vaccination was given every two weeks for the first three boosting and every 4 weeks for the last three boosting as shown in FIG. 2A. Transgene Kras was initiated with Dox diet (625 mg/kg diet) one week after the fourth vaccination, and Dox diet was given throughout of the study.
(§1) Cell suspensions from whole spleens were filtered through a 70 μm cell strainer (BD) and subjected to red blood cell lysis using ACK lysis buffer. 1.5˜3.0×10^4 cells were plated into individual wells of a MAIPS4510 Multiscreen 96 well plate previously coated with anti-interferon γ […] antibody and containing media with either peptide, positive control (concanavalin A) or negative control (HIV peptide, or no antigen). After 72 hours, plates were washed and a secondary antibody (BD) was added and incubated on the plate overnight at 4 degrees Celsius. Wells were then washed with PBS and HRP streptavidin was added. Following 1 h incubation, the plate was developed using AEC substrate for between 5-25 minutes. The plate was subsequently gently washed under cold running tap water. When dry, an automated plate reader system (CTL Technologies) was used to image the plates and quantify spot number.
Using a multi-scoring system that combines multiple MHC class II peptide binding algorithms, immunogenic “hotspots” were identified; 11 peptides (Table 2) were selected; their immunogenicity was evaluated in naïve mice using the IFN-γ ELISPOT assay as previously reported. The KRAS 17-mer peptide (p5-21) that covers the mutation in codon 12, and its G12D mutant (p5-21 G12D) were also selected as robust peptides to stimulate immune response. […] To include peptides against both wild-type and mutant KRAS, also based on a high degree of homology between human and mouse KRAS, peptides p5-21 (SEQ ID NO:2), p5-21 G12D (SEQ ID NO:1), p17-31 (SEQ ID NO:4), and p78-92 (SEQ ID NO:6) were chosen to formulate a multipeptide KRAS vaccine in the preventive efficacy study.

Test [5] relates to IFN-γ-secreting splenocytes. Description: IFN-γ ELISPOT of splenocytes from vaccinated CCSP-KRAS^G12D mice at end of study (epitope spreading). It counts as in vivo, mouse. As to conditions: for mean IFN-γ-secreting cell responses: splenocytes of mice vaccinated with KRAS combination vaccine, pulsed with the named peptide(s) 72 h. Here is the method: FIG. 3. Epitope spreading tested by IFN-γ ELISPOT. Mice were vaccinated with the KRAS combination vaccine (p5-21, p5-21 G12D, p17-31, and p78-92). Then splenocytes were collected and pulsed with KRAS combo peptides, each single KRAS peptide, unvaccinated KRAS peptide p75-89, combo IGFR peptides, or Tert peptide. After 72 h of incubation, the ELISPOT assay was performed, plates were scanned, and spot numbers were statistically analyzed.
as §1
In order to examine the specific immunity that confers the protective effect of the KRAS vaccine, an IFN-γELISPOT assay of splenocytes isolated from adjuvant alone and vaccinated CCSP-KRAS^G12D mice was performed at the end of the study. […] The mean IFN-γ-secreting cell responses were 216 in the pooled KRAS peptides group, and 36, 40, 116, and 52 to individual peptides p5-21, p5-21 G12D, p17-31, and p78-92, respectively. […] There was no evidence of general immune hyperactivity stimulation as none of the animals responded to an irrelevant naïve antigen, further supporting the notion that the immune response detected in the vaccinated group was highly specific to the KRAS vaccine.

In the case of `CC(=C/C=C/C(C)=C/C(=O)O)/C=C1\CCCc2ccccc21` [UAB30], in test [1], the Tregs in tumors entry is “decreased” and the “infiltrated CD8+ cells in tumors” value is recorded as “significantly increased”.
For `CC(C)c1cc(C(C)C)c(CC(=O)NS(=O)(=O)Oc2c(C(C)C)cccc2C(C)C)c(C(C)C)c1` [avasimibe], in test [2], the tumor growth inhibition result was “effective in inhibiting tumor growth”.
As for AGGVGKSALTIQLLQNHFVDE [p11s], in test [3], the Immune response entry is recorded as “Yes”.
For AGGVGKSALTIQLLQNHFVDEYD [p11], the Immune response result in test [3] is recorded as “Yes”.
For CHLLRAFTITAPKDL [mPDL1-13], the “IFN-γ response, peptides against PD-L1” value in the test with IFN-γ response is reported as “strongest IFN-γ response”.
Turning to DAFYTLVREIRKHKE [p154-168], in test [4], the “IFN-γ response (ELISPOT)” value is listed as “much weaker response”.
As to FLCVFAINNTKSFED [p78-92], the “IFN-γ response (ELISPOT)” value in test [4] is listed as “strongest IFN-γ response”. Besides, the Immune response entry in test [3] is “Yes”. The “mean IFN-γ-secreting cell responses” value in test [5] came out at 52.
Turning to FYTLVREIRKHKEKM [p156-170], the “IFN-γ response (ELISPOT)” value in test [4] is “strongest IFN-γ response”. Besides, the Immune response entry in test [3] was “Yes”.
With GEGFLCVFAINNTKS [p75-89], the “IFN-γ response (ELISPOT)” value in test [4] is “much weaker response”. Also, the “IFN-γ response to non-vaccine KRAS peptide” value in test [5] (splenocytes of vaccinated animals) is “strong response”.
Consider KLVVVGADGVGKSALTI [p5-21 G12D], for which, in test [4] (naïve mice), the “mean IFN-γ-secreting cells” value was “around 100 spots per well (SPW)”. Besides, the Immune response entry in test [3] is reported as “Yes”. Also, the “mean IFN-γ-secreting cell responses” value in test [5] came to 40.
Turning to KLVVVGAGGVGKSAL [p5-19], the “response relative to p5-21” value in test [4] (IFN-γ ELISPOT, naïve mice) is listed as “less than 50%”.
KLVVVGAGGVGKSALTI [p5-21]: the “IFN-γ response (ELISPOT)” value in test [4] is recorded as “strongest IFN-γ response”. Besides, the “mean IFN-γ-secreting cells” value in test [4] (naïve mice) is “around 100 spots per well (SPW)”. In test [3], the Immune response result is “Yes”. Further, the “mean IFN-γ-secreting cell responses” value in test [5] is given as 36.
Turning to KLVVVGAVGVGKSALTI [P5-21G12V], the Immune response entry in test [3] is on record as “Yes”.
For LAVFCSTSMSEARGA [mPD1-193], the “IFN-γ response, peptides for PD-1” value in the test with IFN-γ response is listed as “strongest IFN-γ response”.
Regarding LPATHPPQNRTHWVL [mPDL1228], in the test with IFN-γ response, the “IFN-γ response, peptides against PD-L1” value was “strongest IFN-γ response” and the “IFN-γ response, peptides for PD-1” value is recorded as “strongest IFN-γ response”.
Regarding PQHSNFRGRASLPKD [mPDL1-76], the “IFN-γ response, peptides against PD-L1” value in the test with IFN-γ response is on record as “strongest IFN-γ response”.
Turning to QDARFQIIQLPNRHD [mPD1-94], the “IFN-γ response, peptides for PD-1” value in the test on IFN-γ response was “strongest IFN-γ response”.
Consider SALTIQLIQNHFVDE [p17-31], for which the “IFN-γ response (ELISPOT)” value in test [4] was “strongest IFN-γ response”. For the same compound, the Immune response result in test [3] is recorded as “Yes”. Also, the “mean IFN-γ-secreting cell responses” value in test [5] is listed as 116.
For SWQSGWLLEVPNGPW [mPD1-21], in the test on IFN-γ response, the “IFN-γ response, peptides for PD-1” value is “strongest IFN-γ response”.
On to “TgegFLCVFAINNTKSFED (TGEGFLCVFAINNTKSFED) [P75]”, for which the Immune response entry in test [3] is “Yes”.
As to VGAGGVGKSALTIQLLQNHFVDEYD [p9], the Immune response entry in test [3] is on record as “Yes”.
As to “kSALTIQLIQNHFVDEyd (KSALTIQLIQNHFVDEYD; not fully specified (residues 1, 17, 18); printed as kSALTIQLIQNHFVDEyd) [P16]”, the Immune response entry in test [3] is “Yes”.
